Measured values reported in patent US12102672B2, “Immunogenic sequences from a phage tail length tape measure protein, bacteria expressing the same and their use in treating a cancer” (INSTITUT GUSTAVE ROUSSY, priority 2017, dated 2024).
Entries after “also recorded” stand apart in the source; their conditions may differ.

Tests used:
[1] = system: MCA-205 sarcoma; test: MCA205 sarcoma growth in antibiotic-treated SPF C57BL/6 mice, CTX plus oral gavage with bacteria; format: in vivo; settings: ATB 3 days, CTX 100 mg/kg x3, weekly oral gavages, FIG. 27B
Method: A and C. Experimental setting. […] D-E. Ex vivo recall assays. […] Each dot represents one mouse.
(§1) A-B. Prophylactic vaccinations. […] C-D. Therapeutic settings.
Mice were treated during 3 days with an antibiotic solution (ATB) containing ampicillin (1 mg/ml), streptomycin (5 mg/ml), colistin (1 mg/ml) (Sigma-Aldrich) and vancomycin (0.25 mg/ml) added in the sterile drinking water of mice. Antibiotic activity was confirmed by cultivating fecal pellets resuspended in BHI+15% glycerol at 0.1 g/ml on COS (BD Columbia Agar with 5% Sheep Blood) plates for 48 h at 37° C. in aerobic and anaerobic conditions. In the context of bacterial transplantation experiments, mice received 3 days of ATB before undergoing bacterial transplantation the next day by oral gavage using animal feeding needles.
Syngeneic C57BL/6 mice were implanted with 0.8×10^6 MCA-205 WT sarcoma cells subcutaneously and treated intraperitoneally (i.p.) when tumors reached 20 to 35 mm^2 in size with CTX (100 mg/kg). Depending on the experimental setting, mice were injected once or 3 times at 1-week interval. Tumor size was routinely monitored every 3 days by means of a caliper.
Enterococcus hirae 13144 were originally isolated from spleens of SPF mice treated with CTX in our laboratory.

[2] = system: CD8+ and CD4+ T cells; test: Flow cytometry of T cells in mLN, spleen and tumor after oral gavage with E. hirae and CTX; format: in vivo, mice; settings: for accumulation of CD8+ T cells in mLN and spleen: mLN after 1 week, spleen after 2 weeks
Method: FIG. 7. […] (A) Experimental setting. […] One day post-CTX, a second oral gavage with E. hirae is performed. 72 hours post-CTX, CD4+ and CD8+ T cells are isolated from mesenteric lymph node (mLN). Percentage of CD8+(B) and CD4+(C) T cells in mLN after oral gavage with E. hirae 708 or 13144 and CTX treatment. (D) Experimental setting. […] 5 days after the first oral gavage, mice are treated with CTX. One week post-CTX, CD8+ T cells are isolated from spleen. Percentage of CD8+ T cells (E) and CCR9+CXCR3+CD8 T cells (F) in spleen after oral gavage with E. hirae 708 or 13144 and CTX treatment.

[3] = system: MCA205 sarcoma; settings: cited from earlier work; for anti-tumor immune response: FIG. 1D of Daillère et al., 2016
[4] = system: MCA205 sarcoma; test: Prophylactic vaccination with pulsed DCs followed by MCA205 challenge; format: in vivo, C57BL/6 mice; settings: poly I:C-activated BM-DC pulsed with peptides (20 μg/ml) or heat-inactivated bacteria, s.c. twice 10 days apart
Method: FIG. 16. Protocol of immunization with DC pulsed with TMP peptides. After DCs differentiation (with GM-CSF and IL-4 during 6 days), we incubated them with poly I:C (10 μg/ml) overnight before the addition of peptide (1 hour) or heat-inactivated bacteria (6 hours). These DCs are injected subcutaneous on right flank at day 0 and 10. […] We constitute 4 groups, one group without DCs, one group with DCs pulsed with 20 μg/ml of irrelevant peptides (gr1) or TMP peptides or 13144 heat-inactivated bacteria. Mean tumor sizes over time (A), each mouse tumor kinetics for each group (B), and the detailed comparison in between groups at the two last time points before sacrifice for MCA205 are shown (C), each dot representing one mouse. MC38 related data are not shown.
FIG. 17. […] Tumor growth of MCA205 in mice vaccinated with DCs pulsed with gr1 peptides, TMP peptides and E. hirae 13144. (A) Mean±SEM of tumor sizes at different kinetics. (B) Tumor growth kinetics for each individual group of 5-10 mice. (C) Tumor sizes and statistical differences at time of sacrifice.
as §1
After DCs differentiation, these DCs were activated with poly I:C (10 μg/ml, Invivogen) overnight before infection with heat-inactivated (2 h at 65° C.) bacterial strains (MOI 10) or pulsed with peptides (20 μg/ml, peptide 2.0). […]

[5] = system: autologous CD4+ T cells or CD8+ T cells; test: Blood T cell responses of breast cancer patients to monocytes stimulated with bacteria (IFN-γ, IL-10 release); format: cell-based, human
Method: FIG. 22. T cell responses against commensals in blood from breast cancer patients at diagnosis priori to chemotherapy. Autologous monocytes harvested from breast cancer patients were stimulated with distinct bacterial spp. and then incubated with autologous CD4+ T cells or CD8+ T cells to monitor IFN-γ and IL-10 release. (A) TH1/Tc1/Tr1 immune responses to E. hirae 13144. […] (B) TH1/Tc1/Tr1 immune responses to E. coli or TCR cross-linking. BC women display memory T cell responses against E. coli and respond to TCR cross-linking.

[6] = system: E. gallinarum; test: Phage transmission from E. hirae to E. gallinarum in small intestine enteroids; design: species or system Enterococcus gallinarum; settings: 1:1 ratio E. hirae / E. gallinarum on enteroids
Text: . […] Also refer to FIG. 39.
Temperate bacteriophages are bacterial viruses that transfer virulence, antimicrobial resistance genes, and immunogenic sequences to new bacterial hosts (Weinbauer, 2004). The TMP protein, which contains a variable number of tandem repeats with highly conserved tryptophan and phenylalanine residues at fixed positions is encoded by the genome of Siphoviridae phages (Belcaid et al., 2011; Piuri and Hatfull, 2006). To analyze the capacity of E. hirae 13144 to contagiously disseminate the phage TMP sequence, we performed culturomic analyses of the ileal content from C57BL/6 mice subjected to oral gavage with E. hirae 13144 and systemic CTX therapy (FIG. 30C). […] Of note, none of the 90 colonies (mostly of E. gallinarum) isolated from naive mice harbored the TMP sequence (FIG. 39). Moreover, CTX plays a role in eliminating the E. gallinarum, allowing the niching and/or colonization of E. hirae in the small intestine, as shown in vitro in enteroid systems or in PCR of the ileal content (FIG. 30G and not shown). Importantly, incubation of small intestine enteroids with a balanced 1:1 ratio of E. hirae or E. gallinarum harbouring or not the phage respectively, lead to the transmission of the infectious/lytic phage to E. gallinarum by E. hirae in 9% of colonies at 6 hrs and 26% at 20 hrs (FIG. 30G).

[7] = system: MCA205 cells with PSMB4 GSFARFRNI knock-in; test: Growth of Psmb4 knock-in MCA205 tumors under CTX +/- E. hirae 13144; format: in vivo, mice; settings: L→F exchange in position 3, versus WT MCA205

## Enterococcus hirae 708 [Peptide 708, reference compound]
[1]
  restoration of antibiotic-perturbed anticancer effects of CTX (MCA205 growth): reduced anticancer effect
[2]
  accumulation of CD8+ T cells in mLN and spleen: capable of inducing the accumulation of CD8+ T cells
[3]
  anti-tumor immune response: fails to do so

## Enterococcus hirae strain 13144 [Peptide 13144]
[1]
  restoration of antibiotic-perturbed anticancer effects of CTX (MCA205 growth): efficient
[2]; 72 hours post-CTX
  CD4+ T cell pool in the mLN: amplified
[2]; listed as EH13144
  accumulation of CD8+CCR9+CXCR3+ T cells in spleen and tumor beds: induce accumulation; also recorded: Sustained accumulation
  accumulation of CD8+ T cells in mLN and spleen: capable of inducing the accumulation of CD8+ T cells
[2]; listed as E. hirae 13144
  accumulation of CD8+ T cells in mLN and spleen: Increased accumulation
[4]
  protection against MCA205 tumor challenge: reduced tumor growth
[5]; FIG. 22A
  BC patients who developed IL-10 producing memory CD4+ T cell responses: 52%
  BC patients with CD4+ T cells exhibiting no reactivity to pulsed monocytes: 32%
[5]; prior to chemotherapy
  BC patients at diagnosis exhibiting a blood TH1/Tc1 immune response: Less than 20%
[6]; 6 hrs
  colonies of E. gallinarum with transmitted phage: 9%
[6]; 20 hrs
  colonies of E. gallinarum with transmitted phage: 26%
[7]
  anticancer effect on PSMB4 knock-in (GSFARFRNI) MCA205 tumors: drastically blunted the anticancer effects
[3]; 14 day-ATBs, oral gavage
  restoration of CTX-mediated antitumor effects: selectively restored the CTX-mediated antitumor effects
[3]
  anti-tumor immune response: induces an efficient anti-tumor immune response
